Results as given in patent publication US12577231B2, “Androgen receptor PROTACS” (GlaxoSmithKline Intellectual Property Development Limited, priority 2023, dated 2026).

Molecular target: T1, Androgen Receptor protein in human LnCaP cells (Homo sapiens, UniProt P10275, T878A)
T1 construct: the AR gene was modified, using CRISPR/Cas9 editing, so the expressed AR protein included an 11 amino acid HiBiT tag; endogenous in cells; host or cells: clonal LnCaP derived cell line, endogenous AR gene edited by CRISPR/Cas9
T1 sequence (P10275 1-920 T878A): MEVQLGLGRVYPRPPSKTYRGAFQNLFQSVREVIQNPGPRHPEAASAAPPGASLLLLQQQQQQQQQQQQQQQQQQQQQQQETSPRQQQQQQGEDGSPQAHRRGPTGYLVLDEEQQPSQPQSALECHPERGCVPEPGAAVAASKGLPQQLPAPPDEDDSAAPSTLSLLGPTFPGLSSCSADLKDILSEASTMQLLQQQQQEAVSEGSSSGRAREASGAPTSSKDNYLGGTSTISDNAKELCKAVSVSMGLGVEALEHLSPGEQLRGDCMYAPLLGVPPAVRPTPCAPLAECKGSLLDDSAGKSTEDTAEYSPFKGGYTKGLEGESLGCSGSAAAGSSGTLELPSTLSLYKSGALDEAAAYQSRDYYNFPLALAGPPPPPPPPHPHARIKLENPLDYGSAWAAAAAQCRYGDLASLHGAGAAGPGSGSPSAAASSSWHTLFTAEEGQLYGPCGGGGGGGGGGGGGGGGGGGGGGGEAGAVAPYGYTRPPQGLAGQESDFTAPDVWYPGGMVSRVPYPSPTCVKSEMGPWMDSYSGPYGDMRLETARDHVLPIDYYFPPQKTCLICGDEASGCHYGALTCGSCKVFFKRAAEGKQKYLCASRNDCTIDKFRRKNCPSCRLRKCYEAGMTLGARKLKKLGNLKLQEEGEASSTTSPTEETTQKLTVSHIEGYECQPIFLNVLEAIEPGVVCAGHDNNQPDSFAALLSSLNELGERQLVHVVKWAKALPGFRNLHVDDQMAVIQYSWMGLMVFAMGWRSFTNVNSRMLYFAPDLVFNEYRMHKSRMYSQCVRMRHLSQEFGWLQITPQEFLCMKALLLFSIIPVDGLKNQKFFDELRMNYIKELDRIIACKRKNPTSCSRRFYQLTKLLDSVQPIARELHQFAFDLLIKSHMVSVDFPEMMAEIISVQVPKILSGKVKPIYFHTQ
Experiment: Androgen Receptor Degradation Assay (Nano-Glo HiBiT, LnCaP cells)
Assay type: cell-based
Conditions: 18 h, HiBiT-tagged AR LnCaP cells, 18 h incubation, fitted curve asymptote maximum of degradation, read-out: mean asymptote max
Experimental: Degradation of Androgen Receptor protein in human LnCaP cells treated with PROTACs was quantified using the Nano-Glo® HiBiT Lytic Detection System (Promega) in 384 well assay plate format. A clonal LnCaP derived cell line was first established in which the AR gene was modified, using CRISPR/Cas9 editing, so the expressed AR protein included an 11 amino acid HiBiT tag at its amino-terminus. 10 mM DMSO stock solutions of PROTACs were prepared and diluted across an 11 concentration, 3 fold increment range, and 25 nL dispensed into a white opaque bottomed 384 well assay plate (Thermofisher) using an acoustic ECHO dispenser (Labcyte). Cells were grown in cell culture medium (RPMI 1640 supplemented with 15% FBS, penicillin 50U/mL and streptomycin 50 ug/mL (Thermofisher)). For the assay, cells were detached from flask and resuspended with assay medium (FluoroBrite™ DMEM supplemented with 10% heat inactivated FBS, penicillin 50U/mL and streptomycin 50 ug/mL (Thermofisher)). The cell suspension was centrifuged at 400 g for 5 min and the pellet resuspended in assay medium. 25 μL of cell suspension containing 10,000 cells was dispensed into each well of the assay plate containing a serial dilution of test compounds, which was then incubated for 18 h at 37° C./5% CO2. Control wells were included on each assay plate, with assay medium without cells being the no AR remaining 100% effect control, and cells treated with DMSO vehicle only, without PROTAC, the 0% effect control. 25 μL of Nano-Glo® HiBiT lysis buffer supplemented with LgBiT protein and Nano-Glo® substrate (Promega) was added to each well and the plate shaken at 500 rpm for 10 min at room temperature. The intensity of luminescence was measured using a PHERAstar microplate reader (BMG Labtech) and the % AR protein remaining in each well calculated by normalising the raw luminescence value to the above control wells. Parameters corresponding to the potency and efficacy estimates of the PROTACs were obtained from these normalised luminescence values using software (IDBS ActivityBase). These included the DC50 (concentration at which 50% of protein was degraded in M) and the Dmax (maximal degradation, in %) estimates. Two versions of the DC50, called relative DC50 and absolute DC50, were generated. These are the inflection point of a fitted 4 parameter sigmoidal response curve and the interpolated concentration of PROTAC corresponding to 50% of the protein being degraded, respectively. The corresponding pDC50 is reported as −log10(relative […]). The Dmax parameter was the maximum experimentally observed degradation and the asymptote max parameter the fitted response curve asymptote maximum.

Dmax, ≥ 50%:
CC1(C)[C@H](NC(=O)c2ccc(N3CCC(CN4CCC(n5ncc6c(N7CCC(=O)NC7=O)cc(F)cc65)CC4)CC3)c(F)c2)C(C)(C)[C@H]1Oc1ccc(C#N)c2ncccc12 [Example 38, N-((1r,3r)-3-((8-Cyanoquinolin-5-yl)oxy)-2,2,4,4-tetramethylcyclobutyl)-4-(4-((4-(4-(2,4-dioxotetrahydropyrimidin-1(2H)-yl)-6-fluoro-1H-indazol-1-yl)piperidin-1-yl)methyl)piperidin-1-yl)-3-fluorobenzamide]
COc1cc(O[C@H]2C(C)(C)[C@H](NC(=O)c3ccc(N4CCC(CN5CCC(n6ncc7c(N8CCC(=O)NC8=O)cccc76)CC5)CC4)cc3)C2(C)C)ccc1C#N [Example 15, N-((1r,3r)-3-(4-Cyano-3-methoxyphenoxy)-2,2,4,4-tetramethylcyclobutyl)-4-(4-((4-(4-(2,4-dioxotetrahydropyrimidin-1(2H)-yl)-1H-indazol-1-yl)piperidin-1-yl)methyl)piperidin-1-yl)benzamide]
CC1(C)[C@H](NC(=O)c2ccc(N3CCC(CN4CC[C@H](n5ncc6c(N7CCC(=O)NC7=O)cccc65)C4)CC3)c(F)c2)C(C)(C)[C@H]1Oc1ccc(C#N)c2ncccc12 [Example 37, N-((1r,3r)-3-((8-Cyanoquinolin-5-yl)oxy)-2,2,4,4-tetramethylcyclobutyl)-4-(4-(((S)-3-(4-(2,4-dioxotetrahydropyrimidin-1(2H)-yl)-1H-indazol-1-yl)pyrrolidin-1-yl)methyl)piperidin-1-yl)-3-fluorobenzamide]
CC1(C)[C@H](NC(=O)c2ccc(N3CCC(CN4CCC(n5ncc6c(N7CCC(=O)NC7=O)c(F)ccc65)CC4)CC3)c(F)c2)C(C)(C)[C@H]1Oc1ccc(C#N)c(Cl)c1 [Example 13, N-((1r,3r)-3-(3-Chloro-4-cyanophenoxy)-2,2,4,4-tetramethylcyclobutyl)-4-(4-((4-(4-(2,4-dioxotetrahydropyrimidin-1(2H)-yl)-5-fluoro-1H-indazol-1-yl)piperidin-1-yl)methyl)piperidin-1-yl)-3-fluorobenzamide]
CC1(C)[C@H](NC(=O)c2ccc(N3CCC(CN4CCC(n5ncc6c(N7CCC(=O)NC7=O)nccc65)CC4)CC3)c(F)c2)C(C)(C)[C@H]1Oc1ccc(C#N)c2ncccc12 [Example 39, N-((1r,3r)-3-((8-Cyanoquinolin-5-yl)oxy)-2,2,4,4-tetramethylcyclobutyl)-4-(4-((4-(4-(2,4-dioxotetrahydropyrimidin-1(2H)-yl)-1H-pyrazolo[4,3-c]pyridin-1-yl)piperidin-1-yl)methyl)piperidin-1-yl)-3-fluorobenzamide]
CC1(C)[C@H](NC(=O)c2ccc(N3CCC(CN4CCC(n5ncc6c(N7CCC(=O)NC7=O)cccc65)CC4)CC3)c(F)c2)C(C)(C)[C@H]1Oc1cnc(C#N)c(Cl)c1 [Example 3, N-((1r,3r)-3-((5-Chloro-6-cyanopyridin-3-yl)oxy)-2,2,4,4-tetramethylcyclobutyl)-4-(4-((4-(4-(2,4-dioxotetrahydropyrimidin-1(2H)-yl)-1H-indazol-1-yl)piperidin-1-yl)methyl)piperidin-1-yl)-3-fluorobenzamide]
COc1cc(O[C@H]2C(C)(C)[C@H](NC(=O)c3ccc(N4CCC(CN5CC[C@@H](n6ncc7c(N8CCC(=O)NC8=O)cccc76)[C@@H](F)C5)CC4)c(F)c3)C2(C)C)ccc1C#N [Example 27, N-((1r,3r)-3-(4-Cyano-3-methoxyphenoxy)-2,2,4,4-tetramethylcyclobutyl)-4-(4-(((3,4R)-4-(4-(2,4-dioxotetrahydropyrimidin-1(2H)-yl)-1H-indazol-1-yl)-3-fluoropiperidin-1-yl)methyl)piperidin-1-yl)-3-fluorobenzamide]
CC1(C)[C@H](NC(=O)c2ccc(N3CC[C@@H](CN4CCC(n5ncc6c(N7CCC(=O)NC7=O)cccc65)CC4)C3)c(F)c2)C(C)(C)[C@H]1Oc1ccc(C#N)c2ncccc12 [Example 33, N-((1r,3S)-3-((8-Cyanoquinolin-5-yl)oxy)-2,2,4,4-tetramethylcyclobutyl)-4-((S)-3-((4-(4-(2,4-dioxotetrahydropyrimidin-1(2H)-yl)-1H-indazol-1-yl)piperidin-1-yl)methyl)pyrrolidin-1-yl)-3-fluorobenzamide]
CC1(C)[C@H](NC(=O)c2ccc(N3CCC(CN4CC[C@@H](n5ncc6c(N7CCC(=O)NC7=O)cccc65)C4)CC3)c(F)c2)C(C)(C)[C@H]1Oc1ccc(C#N)c2ncccc12 [Example 36, N-((1r,3r)-3-((8-Cyanoquinolin-5-yl)oxy)-2,2,4,4-tetramethylcyclobutyl)-4-(4-(((R)-3-(4-(2,4-dioxotetrahydropyrimidin-1(2H)-yl)-1H-indazol-1-yl)pyrrolidin-1-yl)methyl)piperidin-1-yl)-3-fluorobenzamide]
CC1(C)[C@H](NC(=O)c2ccc(N3CCC(CN4CCC(n5ccc6c(N7CCC(=O)NC7=O)ncnc65)CC4)CC3)c(F)c2)C(C)(C)[C@H]1Oc1ccc(C#N)c2ncccc12 [Example 47, N-((1r,3r)-3-((8-Cyanoquinolin-5-yl)oxy)-2,2,4,4-tetramethylcyclobutyl)-4-(4-((4-(4-(2,4-dioxotetrahydropyrimidin-1(2H)-yl)-7H-pyrrolo[2,3-d]pyrimidin-7-yl)piperidin-1-yl)methyl)piperidin-1-yl)-3-fluorobenzamide]
CC1(C)[C@H](NC(=O)c2ccc(N3CCC(CN4CCC(n5ncc6c(N7CCC(=O)NC7=O)cccc65)CC4)CC3)c(Cl)c2)C(C)(C)[C@H]1Oc1ccc(C#N)c2ncccc12 [Example 44, 3-Chloro-N-((1r,3r)-3-((8-cyanoquinolin-5-yl)oxy)-2,2,4,4-tetramethylcyclobutyl)-4-(4-((4-(4-(2,4-dioxotetrahydropyrimidin-1(2H)-yl)-1H-indazol-1-yl)piperidin-1-yl)methyl)piperidin-1-yl)benzamide]
CC1(C)[C@H](NC(=O)c2ccc(N3CCC(CN4CC[C@@H](n5ncc6c(N7CCC(=O)NC7=O)cccc65)[C@@H](F)C4)CC3)c(F)c2)C(C)(C)[C@H]1Oc1ccc(C#N)c2ncccc12 [Example 45, N-((1r,3r)-3-((8-Cyanoquinolin-5-yl)oxy)-2,2,4,4-tetramethylcyclobutyl)-4-(4-(((35,4R)-4-(4-(2,4-dioxotetrahydropyrimidin-1(2H)-yl)-1H-indazol-1-yl)-3-fluoropiperidin-1-yl)methyl)piperidin-1-yl)-3-fluorobenzamide]
CC1(C)[C@H](NC(=O)c2ccc(N3CC[C@H](CN4CCC(n5ncc6c(N7CCC(=O)NC7=O)cccc65)CC4)C3)c(F)c2)C(C)(C)[C@H]1Oc1ccc(C#N)c2ncccc12 [Example 34, N-((1r,3R)-3-((8-Cyanoquinolin-5-yl)oxy)-2,2,4,4-tetramethylcyclobutyl)-4-((R)-3-((4-(4-(2,4-dioxotetrahydropyrimidin-1(2H)-yl)-1H-indazol-1-yl)piperidin-1-yl)methyl)pyrrolidin-1-yl)-3-fluorobenzamide]
